Measured values from PMC7248907, “Naphthoquinones as Covalent Reversible Inhibitors of Cysteine Proteases—Studies on Inhibition Mechanism and Kinetics” (Molecules, 2020).
Values joined by “and” are separate entries in the source; they are usually repeats but may differ in a detail not shown here. Equal entries are not always repeated. “Also recorded” adds a separate entry of the source. Where two headings read alike, the source gives them in different places.

Legend:
rhodesain [1] = target: T1, rhodesain (Trypanosoma brucei rhodesiense, UniProt Q95PM0); test: biochemical; type: biochemical; settings: for inhibition at 20 µM: at 20 µM inhibitor, read-out: Rhod. % inh.; for fold improvement of rhodesain inhibition, acid compared to benzyl ester: 3 compared to 1, 4 compared to 2; for Rhod. t1/2: half-life of final complex, 0.693/k4; for Rhod. ΔEreac: reaction energy of second inhibition step from k3/k4; for Rhod. k3 / Rhod. k4: second inhibition step; for Rhod. k3: forward rate; for Rhod. k4: off-rate
T1 construct: made in house; host or cells: Pichia pastoris

cathepsin L [2] = target: T2, cathepsin L (Homo sapiens, UniProt P07711); test: Fluorometric cathepsin L inhibition assay (Cbz-Phe-Arg-AMC); type: biochemical; parameters: purchased Calbiochem, Merck Millipore; settings: for inhibition at 20 µM: at 20 µM inhibitor, read-out: Cath. L % inh.; for Cath. L t1/2: half-life of final complex, 0.693/k4; for Cath. L ΔEreac: reaction energy of second inhibition step from k3/k4; for Cath. L k3 / Cath. L k4: second inhibition step; for Cath. L k3: forward rate; for Cath. L k4: off-rate
cathepsin B = target: T3, cathepsin B (Homo sapiens, UniProt P07858); test: Fluorometric cathepsin B inhibition assay (Cbz-Phe-Arg-AMC); type: biochemical; settings: for inhibition at 20 µM: at 20 µM inhibitor, read-out: Cath. B % inh.
T3 construct: purchased Calbiochem, Merck Millipore

[3] = target: T4, NS3/NS2B protease of the Dengue virus (DENV PR) (Dengue virus type 2, UniProt P29990); test: Fluorometric DENV NS2B/NS3 protease assay (Boc-Gly-Arg-Arg-AMC); type: biochemical; settings: for inhibition at 20 µM: at 20 µM inhibitor, read-out: DENV PR % inh.
T4 construct: the NS3/NS2B protease of the Dengue virus (DENV PR)

rhodesain [4] = target: T1, rhodesain; test: Dilution assay (reversibility), rhodesain; type: biochemical; settings: 5×IC50, 50-fold dilution; data not shown
rhodesain [5] = target: T1, rhodesain; test: Dialysis assay (reversibility), rhodesain; type: biochemical; settings: 20×IC50, 30 min preincubation, dialysis up to 120 min
cathepsin L [6] = target: T2, cathepsin L; test: Dilution assay (reversibility), cathepsin L; settings: 5×IC50, 15 min incubation, 50-fold dilution
Procedure: Then, the mixture was diluted by 50-fold to yield a final inhibitor concentration of 10% of the IC50 concentration.
Fluorometric assays for cathepsin B and cathepsin L (Calbiochem, Merck
Millipore) were performed as described previously.[7,8] Cbz-Phe-Arg-AMC was used as substrate
(final conc.: 100 μM for cathepsin B, 6.5 μM for cathepsin L) in assay buffer (50 mM Tris, pH 6.5,
Recombinantly expressed rhodesain (0.9 mg/mL) or cathepsin L (Calbiochem, Merck Millipore) were
diluted 1:100 in enzyme buffer (rhodesain: 50 mM sodium acetate, pH 5.5, 5 mM EDTA, 200 mM
NaCl and 2 mM DTT; cathepsin L: 50 mM Tris, pH 6.5, 5 mM EDTA, 200 mM NaCl and 2 mM DTT)
and preincubated for 1 h at room temperature. 54 μL of the respective enzyme solution was treated
enzyme-inhibitor reactions were incubated for 15 min at room temperature to ensure complete
inhibition. 1.2 μL of each reaction mixture was diluted with 57.3 μL of the respective assay buffer
(rhodesain: 50 mM sodium acetate, pH 5.5, 5 mM EDTA, 200 mM NaCl, 0.005% Brij; cathepsin L:
Phe-Arg-AMC in DMSO (final conc.: 10 μM for rhodesain, 6.5 μM for cathepsin L) and monitored
with a Tecan Infinite M200 Pro plate reader (λ ex: 380 nm/λ em: 460 nm).

rhodesain [7] = target: T1, rhodesain; test: Hydrolysis assay UV-Vis (ester hydrolysis by rhodesain); type: biochemical; settings: for half-life at 250 µM: Trypanosoma brucei rhodesiense, rhodesain enzyme solution, pH 5.5, absorbance at 400 nm vs time, read-out: t1/2 of ester hydrolysis by rhodesain; for turnover curve of absorbance at 400 nm vs. time with rhodesain: monitored for 2 h at 25 °C
Procedure: Since the esters and the free carboxylic acid have different UV-Vis characteristics, we recorded time-dependent absorbance spectra at 400 nm (Figure 9).
Figure 9 Kinetic analysis of the ester hydrolysis by rhodesain. […]
Hydrolysis assay – UV-Vis:
To a solution of rhodesain (10 μg/mL) in 197.5 μL reaction buffer (50 mM sodium acetate, pH 5.5,
(§1) (20 mM) was added and the absorbance was monitored for 2 h at 25 °C with a Tecan Spark 10M (λabs: […]

[8] = system: T. b. brucei 449 cell line; test: T. b. brucei cell survival assay (ATPlite); type: cell-based; settings: Trypanosoma brucei, 48 h; read-out: EC50 antitrypanosomal activity
Procedure: Benzyl ester 2 was tested for its antitrypanosomal activity as described previously.
5. T. b. brucei cell survival assay
Toxicity of 2 against trypanosomes ( T. b. brucei 449 cell line) were determined via an ATPlite assay as described previously[13–15] using the cellular ATP levels as a proxy for cell viability. 2 (5 mM stock solution in DMSO) was first diluted 1:3 in medium, followed by a 1:10 dilution step in a microplate and ten subsequent 1:2 dilution steps. 90 μL HMI-9 medium containing 2500 cells/mL were distributed in 96-well microplates (PerkinElmer). 10 μL of the 1:2 dilution step preparations of the tested compounds were added to the 90 μL cell suspension leading to final concentrations from 16.67 μM to 32.55 nM in the microplates. As a negative control, addition of 0.3% of DMSO corresponding to the highest DMSO concentration added by compound application was used. 10% DMSO was used as a positive control, since at this DMSO concentration, all cells die. […] 50 μL of ATPlite 1 step solution (PerkinElmer) was added to each well of the microplate and luminescence measured at room temperature with an Infinite® M200 PRO plate reader (Tecan Trading AG). The measured values were plotted against the compound concentrations top yield the dose-response curve. The EC 50 values were calculated using GraFit version 5.013 (Erithacus Software Ltd.).

rhodesain [9] = target: T1, rhodesain; test: Hydrolysis assay LC/MS (ester hydrolysis by rhodesain); type: biochemical; settings: 24 h incubation with rhodesain, 25 °C
Procedure: As reported previously for benzyl esters of the tested dipeptide sequence, we raised the hypothesis also in the current case, that the observed ester cleavage of the rhodesain–inhibitor adduct (Figure 5) might occur by rhodesain-catalyzed enzymatic hydrolysis. To verify this hypothesis, we incubated compounds 1, 2 (benzyl esters), compound 6 (methyl ester) and compound 8 (tert-butyl ester) for 24 h with rhodesain. The reaction mixtures were subsequently analyzed by LC–MS.
In fact, we found ester hydrolysis for the benzyl and methyl esters, but not for the tert-butyl ester. […] The unconverted ester 1 was eluted at tR = 3.19 min. Upon incubation with rhodesain, a peak at tR = 1.03 min was observed matching the retention time of the reference acid 3. […]
triplicates at different time points (0, 30, 60, 120 min) and reactions were initiated by the addition of […]
Hydrolysis assay – LC/MS:
Hydrolysis assays were performed as described previously.[12] To a solution of rhodesain […]
2 mM DTT) 1 μL of either cpd. 1, 2, 6 or 8 in DMSO (20 mM) was added and the mixtures was incubated for 24 h at 25 °C. As negative reaction control, 99 μL assay buffer was treated with pure cpd. 1, 2, 6 or 8 in DMSO (20 mM) without rhodesain. […]
as §1

[10] = approximate value, read-out: Ki of initial non-covalent complex, Rhod
[11] = final complex, Dixon fit of vS vs [I], read-out: Rhod. Ki^* Method 2
[12] = final high-affinity complex, Ki/(1+k3/k4), read-out: Rhod. Ki^* Method 1
[13] = initial complex, Dixon fit of vi vs [I], read-out: Rhod. Ki Method 2
[14] = initial non-covalent complex, from kobs vs [I], read-out: Rhod. Ki Method 1
[15] = reversible, time-dependent inhibition, final high-affinity complex, mean of method 1 and method 2, read-out: Rhod. Ki^*
[16] = approximate value, read-out: Ki of initial non-covalent complex, CathL
[17] = final complex, Dixon fit of vS vs [I], read-out: Cath. L Ki^* Method 2
[18] = final high-affinity complex, Ki/(1+k3/k4), read-out: Cath. L Ki^* Method 1
[19] = initial complex, Dixon fit of vi vs [I], read-out: Cath. L Ki Method 2
[20] = initial non-covalent complex, from kobs vs [I], read-out: Cath. L Ki Method 1
[21] = reversible, time-dependent inhibition, final high-affinity complex, mean of method 1 and method 2, read-out: Cath. L Ki^*

T2 sequence (P07711 114-333): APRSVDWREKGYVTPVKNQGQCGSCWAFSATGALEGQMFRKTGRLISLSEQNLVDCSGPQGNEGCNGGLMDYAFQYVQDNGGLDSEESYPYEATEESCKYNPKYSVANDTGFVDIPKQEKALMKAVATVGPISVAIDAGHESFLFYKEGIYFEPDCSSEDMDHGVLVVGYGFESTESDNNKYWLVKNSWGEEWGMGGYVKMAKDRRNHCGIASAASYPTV
T1 sequence (Q95PM0 entry or part of it): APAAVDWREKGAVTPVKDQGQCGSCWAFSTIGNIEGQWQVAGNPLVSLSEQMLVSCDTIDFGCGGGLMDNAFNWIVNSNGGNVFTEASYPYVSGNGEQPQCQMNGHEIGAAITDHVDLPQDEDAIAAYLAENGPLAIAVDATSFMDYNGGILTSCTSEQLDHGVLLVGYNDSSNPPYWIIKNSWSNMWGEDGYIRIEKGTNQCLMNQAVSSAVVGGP
T4 sequence (P29990 1346-1475): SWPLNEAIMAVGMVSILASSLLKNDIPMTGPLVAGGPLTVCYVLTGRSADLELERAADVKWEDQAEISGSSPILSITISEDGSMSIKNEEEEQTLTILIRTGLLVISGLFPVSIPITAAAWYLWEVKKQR
T4 sequence (P29990 1476-1653): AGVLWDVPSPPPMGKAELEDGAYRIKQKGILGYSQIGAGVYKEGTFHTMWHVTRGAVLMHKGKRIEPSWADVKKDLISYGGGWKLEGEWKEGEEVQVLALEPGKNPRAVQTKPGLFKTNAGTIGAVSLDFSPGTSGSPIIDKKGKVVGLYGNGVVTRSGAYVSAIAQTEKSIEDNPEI

COC(=O)[C@H](CC(C)C)NC(=O)[C@H](Cc1ccccc1)NC1=C(Cl)C(=O)c2ccccc2C1=O [Compound 5]
inhibition at 20 µM (rhodesain [1]): 48% | inhibition at 20 µM (cathepsin L [2]): 45%

CC(C)C[C@H](NC(=O)[C@H](Cc1ccccc1)NC1=C(Cl)C(=O)c2ccccc2C1=O)C(=O)O [Compound 3]
inhibition at 20 µM (cathepsin B): 25% | fold improvement of rhodesain inhibition, acid compared to benzyl ester (rhodesain [1]): ca. 120 fold | Ki (rhodesain [1]; [10]): ~60 nM | Ki (rhodesain [1]; [11]): 36 nM | Ki (rhodesain [1]; [12]): 11 nM | Rhod. t1/2 (rhodesain [1]): 19.25 min | Ki (rhodesain [1]; [13]): 63 nM | Ki (rhodesain [1]; [14]): 57 nM | Rhod. ΔEreac (rhodesain [1]): -0.85 kcal/mol | Ki (rhodesain [1]; [15]): 24 nM | Rhod. k3 (rhodesain [1]): 0.0025 s⁻¹ | Rhod. k4 (rhodesain [1]): 0.0006 s⁻¹ | inhibition at 20 µM [3]: 43% | reactivation of enzyme activity after dilution, rhodesain (rhodesain [4]): full reactivation | recovery of rhodesain activity by dialysis (rhodesain [5]): the enzymatic activity was restored | fold improvement of cathepsin L inhibition, acid compared to benzyl ester (cathepsin L [2]; 3 compared to ester 1): 20 fold | Ki (cathepsin L [2]; [16]): ~400 nM | Ki (cathepsin L [2]; [17]): 61 nM | Ki (cathepsin L [2]; [18]): 53 nM | Cath. L t1/2 (cathepsin L [2]): 16.5 min | Ki (cathepsin L [2]; [19]): 345 nM | Ki (cathepsin L [2]; [20]): 443 nM | Cath. L ΔEreac (cathepsin L [2]): -1.2 kcal/mol | Ki (cathepsin L [2]; [21]): 57 nM | Cath. L k3 (cathepsin L [2]): 0.0052 s⁻¹ | Cath. L k4 (cathepsin L [2]): 0.0007 s⁻¹ | reactivation of enzyme activity after dilution, cathepsin L (cathepsin L [6]): full reactivation

CC(C)C[C@H](NC(=O)[C@H](Cc1ccccc1)NC1=C(C#N)C(=O)c2ccccc2C1=O)C(=O)O [Compound 4]
inhibition at 20 µM (cathepsin B): 45% | fold improvement of rhodesain inhibition, acid compared to benzyl ester (rhodesain [1]): ca. 1200 fold | Ki (rhodesain [1]; [10]): ~0.4 nM | Ki (rhodesain [1]; [11]): 0.2 nM | Ki (rhodesain [1]; [12]): 0.1 nM | Rhod. t1/2 (rhodesain [1]): 19.25 min | Ki (rhodesain [1]; [13]): 0.32 nM | Ki (rhodesain [1]; [14]): 0.47 nM | Rhod. ΔEreac (rhodesain [1]): -0.89 kcal/mol | Ki (rhodesain [1]; [15]): ~0.15 nM and 0.15 nM | Rhod. k3 (rhodesain [1]): 0.0027 s⁻¹ | Rhod. k4 (rhodesain [1]): 0.0006 s⁻¹ | inhibition at 20 µM [3]: 38% | reactivation of enzyme activity after dilution, rhodesain (rhodesain [4]): full reactivation | recovery of rhodesain activity by dialysis (rhodesain [5]): the enzymatic activity was restored; also recorded: only slow reactivation | Ki (cathepsin L [2]; [16]): ~100 nM | Ki (cathepsin L [2]; [17]): 15 nM | Ki (cathepsin L [2]; [18]): 19 nM | Cath. L t1/2 (cathepsin L [2]): 12.8 min | Ki (cathepsin L [2]; [19]): 91 nM | Ki (cathepsin L [2]; [20]): 129 nM | Cath. L ΔEreac (cathepsin L [2]): -1.1 kcal/mol | Ki (cathepsin L [2]; [21]): 17 nM | Cath. L k3 (cathepsin L [2]): 0.0051 s⁻¹ | Cath. L k4 (cathepsin L [2]): 0.0009 s⁻¹ | reactivation of enzyme activity after dilution, cathepsin L (cathepsin L [6]): full reactivation

CC(C)C[C@H](NC(=O)[C@H](Cc1ccccc1)NC1=C(Cl)C(=O)c2ccccc2C1=O)C(=O)OC(C)(C)C [Compound 7]
inhibition at 20 µM (rhodesain [1]): 51% | inhibition at 20 µM (cathepsin L [2]): 38%

CC(C)C[C@H](NC(=O)[C@H](Cc1ccccc1)NC1=C(C#N)C(=O)c2ccccc2C1=O)C(=O)OCc1ccccc1 [Compound 2]
Ki (cathepsin B; read-out: Cath. B Ki): 1900 nM | Ki (rhodesain [1]; read-out: Rhod. Ki): 180 nM | IC50 ([3]; [S] = 100 µM (Boc-Gly-Arg-Arg-AMC)): 41000 nM | half-life at 250 µM (rhodesain [7]): 3.41 min | turnover curve of absorbance at 400 nm vs. time with rhodesain (rhodesain [7]): hyperbolic turnover curves | EC50 [8]: 120 nM | k3, cathepsin L (cathepsin L [2]; Method 1): 0.0148 s⁻¹ | k4, cathepsin L (cathepsin L [2]; Method 1): 0.0012 s⁻¹ | half-life t1/2 of final complex, cathepsin L (cathepsin L [2]; calculated by 0.693/k4): around 10 min | Ki (cathepsin L [2]; [17]): 54 nM | Ki (cathepsin L [2]; [18]): 12 nM | Ki (cathepsin L [2]; [19]): 300 nM | Ki (cathepsin L [2]; [20]): 160 nM | Ki (cathepsin L [2]; [21]): 33 nM | Cath. L k3 (cathepsin L [2]): 0.0148 s⁻¹ | Cath. L k4 (cathepsin L [2]): 0.0012 s⁻¹ | reactivation of enzyme activity after dilution, cathepsin L (cathepsin L [6]): full reactivation; also recorded: nearly fully recovered

CC(C)CC(NC(=O)C(Cc1ccccc1)NC1=C(Cl)C(=O)c2ccccc2C1=O)C(=O)OCc1ccccc1 [Compound 1, Benzyl-N-(3-chloro-1,4-dioxo-1,4-dihydronaphthalen-2-yl)-L-phenylalanyl-L-leucinate]
inhibition at 20 µM (cathepsin B): 53% | Ki (rhodesain [1]; read-out: Rhod. Ki): 2900 nM | inhibition at 20 µM [3]: 41% | reactivation of enzyme activity after dilution, rhodesain (rhodesain [4]): 40–50% | ester hydrolysis by rhodesain (LC–MS) (rhodesain [9]): rhodesain-catalyzed ester hydrolysis | Ki (cathepsin L [2]; from plots of IC50 vs substrate concentration (Cheng–Prusoff), read-out: Cath. L Ki): 1140 nM | reactivation of enzyme activity after dilution, cathepsin L (cathepsin L [6]): full reactivation; also recorded: nearly fully recovered

CC(C)C[C@H](NC(=O)[C@H](Cc1ccccc1)NC1=C(C#N)C(=O)c2ccccc2C1=O)C(=O)OC(C)(C)C [Compound 8]
inhibition at 20 µM (rhodesain [1]): 38% | inhibition at 20 µM (cathepsin L [2]): 21%

CN1CCN(C(=O)N[C@@H](Cc2ccccc2)C(=O)N[C@H](/C=C/S(=O)(=O)c2ccccc2)CCc2ccccc2)CC1 [K11777, reference compound]
recovery of rhodesain activity by dialysis (rhodesain [5]): the enzyme activity could not be recovered | reactivation of enzyme activity after dilution, cathepsin L (cathepsin L [6]): no recovery was observed

COC(=O)[C@H](CC(C)C)NC(=O)[C@H](Cc1ccccc1)NC1=C(C#N)C(=O)c2ccccc2C1=O [Compound 6]
Ki (rhodesain [1]; read-out: Rhod. Ki): 1240 nM | half-life at 250 µM (rhodesain [7]): 10.2 min | turnover curve of absorbance at 400 nm vs. time with rhodesain (rhodesain [7]): hyperbolic turnover curves | inhibition at 20 µM (cathepsin L [2]): 40%
